The target in one data set is human μ opiate receptor (Homo sapiens, UniProt P35372). The data set is described as follows: μ opiate receptor binding assay with [3H]-naloxone, membrane preparation of CHO-K1 cells (WGA-SPA beads).
The mark [1] stands for this setting: mean, read-out: Ki (μ) mean [μm].

The results in this text go back to patent publication US10214520B2, “Substituted azaspiro(4.5)decane derivatives” (priority 2014, dated 2019).

The Ki is the dissociation constant of the complex between target and ligand, obtained from inhibition or displacement. A word on the melting point: it is the temperature, or range, at which the solid turns liquid.

Like-named read-outs stand apart in the source and are kept apart here.

Chain of human μ opiate receptor (P35372 whole entry): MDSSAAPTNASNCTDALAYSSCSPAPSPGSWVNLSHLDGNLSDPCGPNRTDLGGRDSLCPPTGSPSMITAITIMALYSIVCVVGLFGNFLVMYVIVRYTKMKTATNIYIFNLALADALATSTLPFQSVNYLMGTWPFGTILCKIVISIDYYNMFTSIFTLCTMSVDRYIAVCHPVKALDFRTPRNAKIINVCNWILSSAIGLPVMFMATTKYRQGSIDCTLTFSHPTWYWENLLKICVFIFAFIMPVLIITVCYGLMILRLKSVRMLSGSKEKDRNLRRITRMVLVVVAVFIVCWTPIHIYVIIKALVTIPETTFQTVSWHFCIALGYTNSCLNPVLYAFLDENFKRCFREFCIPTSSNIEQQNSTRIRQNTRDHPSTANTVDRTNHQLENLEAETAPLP

`CN(C)C1(C(=O)c2cccs2)CCC2(CCN(Cc3ccccc3)C2)CC1` (single isomer, unassigned) [Example No. 72, [3-Benzyl-8-(dimethylamino)-3-azaspiro[4.5]decan-8-yl]-thiophen-2-ylmethanone]: the inhibitory constant (Ki) on human μ opiate receptor (setting [1]) was 805 nM.

For the molecule `CN(C)[C@]1(c2ccccn2)CC[C@]2(CC1)CC(=O)N(CCCC(N)=O)C2` [SC-1013, Cis-4-(8-Dimethylamino-3-oxo-8-pyridin-2-yl-2-azaspiro[4.5]decan-2-yl)-butyramide], the Ki on human μ opiate receptor (read-out: MOP Ki) turned out to be 2430 nM.

Consider `CN(C)C1(C(=O)c2ccccc2)CCC2(CCN(Cc3ccccc3)C2)CC1` (single isomer, unassigned) [Example No. 70, [3-Benzyl-8-(dimethylamino)-3-azaspiro[4.5]decan-8-yl]-phenylmethanone], for which, at human μ opiate receptor (setting [1]), the Ki came to 465 nM.

In the case of `CN(C)[C@]1(c2cnccn2)CC[C@]2(CC1)CC(=O)N(CCCC(N)=O)C2` [SC-1010, Cis-4-(8-Dimethylamino-3-oxo-8-pyrazin-2-yl-2-azaspiro[4.5]decan-2-yl)-butyramide], the Ki on human μ opiate receptor (read-out: MOP Ki) turned out to be 825 nM.

As for `CN(C)[C@]1(c2ccccc2)CC[C@]2(CC1)CC(=O)N(CC(C)(C)C(=O)NCCc1cncnc1)C2` [SC-1184, Cis-3-(8-Dimethylamino-3-oxo-8-phenyl-2-azaspiro[4.5]decan-2-yl)-2,2-dimethyl-N-(2-pyrimidin-5-yl-ethyl)-propionamide], at human μ opiate receptor (read-out: MOP Ki), the Ki was found to be 320 nM.

As to `CN(C)C1(C(=O)c2cccs2)CCC2(CCN(Cc3ccccc3)C2)CC1` (single isomer, unassigned) [Example No. 71, [3-Benzyl-8-(dimethylamino)-3-azaspiro[4.5]decan-8-yl]-thiophen-2-ylmethanone], the Ki at human μ opiate receptor (setting [1]) was determined as 127 nM.

As for `CCCCC1(N(C)C)CCC2(CC1)CC(=O)N(Cc1ccccc1)C2` (stereo not shown) [Example No. 124, 3-Benzyl-8-butyl-8-(dimethylamino)-3-azaspiro[4.5]decan-2-one], the Ki on human μ opiate receptor (setting [1]) came to 2970 nM.

Turning to `CN(C)C1(c2cccs2)CCC2(CCN(Cc3ccncc3)C2=O)CC1` (stereo not shown) [Example 85], the Ki at human μ opiate receptor (setting [1]) worked out at 260 nM.

`COC(=O)c1ccc(N2C[C@]3(CC[C@@](c4ccccc4)(N(C)C)CC3)CC2=O)cc1` [SC-1074, Cis-4-(8-Dimethylamino-3-oxo-8-phenyl-2-azaspiro[4.5]decan-2-yl)-benzoic acid methyl ester]: the Ki at human μ opiate receptor (read-out: MOP Ki) stood at 420 nM.

The molecule `Cc1ccc(C2(N(C)C)CCC3(CC2)CC(=O)N(C(=O)OC(C)(C)C)C3)s1` (stereo not shown) returned a melting point of 165 to 167 °C.
